Laboratory results as given in ChEMBL document CHEMBL2163318, “Phenylalanine derivatives as GPR142 agonists for the treatment of type II diabetes” (Bioorg Med Chem Lett, 2012).
Calls of active or inactive are those of the source. No cut-off for these calls is given here.

Tests used:
[1] = Metabolic stability of rat microsomes assessed as compound turnover at 1 uM after 30 mins by LC-MS analysis; assay type: ADME, Microsome; conditions: read-out: Drug metabolism
[2] = Metabolic stability of human microsomes assessed as compound turnover at 1 uM after 30 mins by LC-MS analysis; assay type: ADME, Microsome; conditions: read-out: Drug metabolism
[3] = biological target: T1, Probable G-protein coupled receptor 142 (Homo sapiens, UniProt Q7Z601); assay: Agonist activity at human GPR142 expressed in HEK293 cells assessed as inositol phosphate accumulation after 1 hr by scintillation counting; assay type: functional, cell-based
T1 sequence (Q7Z601 whole entry): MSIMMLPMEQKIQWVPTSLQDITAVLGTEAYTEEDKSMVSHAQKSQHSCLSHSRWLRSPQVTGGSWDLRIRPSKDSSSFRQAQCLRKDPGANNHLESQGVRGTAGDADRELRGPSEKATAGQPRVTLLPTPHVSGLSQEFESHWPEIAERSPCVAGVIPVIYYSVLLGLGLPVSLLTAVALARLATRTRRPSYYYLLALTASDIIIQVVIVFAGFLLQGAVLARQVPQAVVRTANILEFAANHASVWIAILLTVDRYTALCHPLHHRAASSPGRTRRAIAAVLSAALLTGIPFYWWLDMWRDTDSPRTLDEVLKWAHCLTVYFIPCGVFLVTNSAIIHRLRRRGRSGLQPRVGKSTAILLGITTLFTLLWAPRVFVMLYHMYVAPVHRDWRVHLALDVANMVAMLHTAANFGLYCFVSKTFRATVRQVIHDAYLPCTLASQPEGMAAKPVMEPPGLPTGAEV

[4] = biological target: T2, Probable G-protein coupled receptor 142 (Homo sapiens) (UniProt Q7Z601); assay: Agonist activity at human GPR142 expressed in HEK293 cells assessed as inositol phosphate accumulation at 10 uM after 1 hr by scintillation counting; assay type: functional, cell-based
T2 sequence (whole entry): T1 sequence (Q7Z601 whole entry)

[5] = Clearance in rat at 0.5 mg/kg, iv; assay type: ADME, organism-based; parameters: dose 0.5 mg/kg, route intravenous; conditions: in vivo
[6] = Oral bioavailability in rat at 2 mg/kg; assay type: ADME, organism-based; conditions: in vivo
[7] = Clearance in rat; assay type: ADME, organism-based; conditions: in vivo
[8] = AUC in rat at 0.67 mg/kg, iv; assay type: ADME, organism-based; parameters: dose 0.67 mg/kg, route intravenous; conditions: plasma
[9] = AUC in rat at 2 mg/kg, po; assay type: ADME, organism-based; parameters: dose 2 mg/kg, route oral; conditions: plasma
[10] = Half life in rat at 0.67 mg/kg, iv; assay type: ADME, organism-based; parameters: dose 0.67 mg/kg, route intravenous; conditions: in vivo
[11] = Clearance in rat at 0.67 mg/kg, iv; assay type: ADME, organism-based; parameters: dose 0.67 mg/kg, route intravenous; conditions: in vivo
[12] = biological target: T3, Probable G-protein coupled receptor 142 (Mus musculus) (UniProt Q7TQN9); assay: Partial agonist activity at mouse GPR142 expressed in HEK293 cells relative to control; assay type: functional, cell-based
T3 sequence (whole entry): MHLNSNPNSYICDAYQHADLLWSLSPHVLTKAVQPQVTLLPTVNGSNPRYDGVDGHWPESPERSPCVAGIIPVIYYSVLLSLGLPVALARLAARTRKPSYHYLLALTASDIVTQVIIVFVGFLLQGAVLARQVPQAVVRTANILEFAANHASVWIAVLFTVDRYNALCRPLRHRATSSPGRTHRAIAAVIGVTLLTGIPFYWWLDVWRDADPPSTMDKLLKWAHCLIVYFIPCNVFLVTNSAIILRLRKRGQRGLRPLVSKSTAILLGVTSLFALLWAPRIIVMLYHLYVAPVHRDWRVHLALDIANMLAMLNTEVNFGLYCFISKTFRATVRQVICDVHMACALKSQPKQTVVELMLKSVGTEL

[13] = Mean residence time in rat at 2 mg/kg, po; assay type: ADME, organism-based; parameters: dose 2 mg/kg, route oral; conditions: in vivo
[14] = Volume of distribution at steady state in rat at 0.67 mg/kg, iv; assay type: ADME, organism-based; parameters: dose 0.67 mg/kg, route intravenous; conditions: in vivo, read-out: Vdss
[15] = biological target: T2, Probable G-protein coupled receptor 142 (Homo sapiens); assay: Agonist activity at human GPR142 expressed in HEK293 cells assessed as inositol phosphate accumulation after 1 hr by scintillation counting in presence of 100% serum; assay type: functional, cell-based
[16] = AUC in rat at 0.5 mg/kg, iv; assay type: ADME, organism-based; parameters: dose 0.5 mg/kg, route intravenous; conditions: plasma
[17] = Half life in rat at 0.5 mg/kg, iv; assay type: ADME, organism-based; parameters: dose 0.5 mg/kg, route intravenous; conditions: in vivo
[18] = Volume of distribution at steady state in rat at 0.5 mg/kg, iv; assay type: ADME, organism-based; parameters: dose 0.5 mg/kg, route intravenous; conditions: in vivo, read-out: Vdss

| Structure (SMILES) | metabolised at 0.5 h, 1 µM [1] [%] | metabolised at 0.5 h, 1 µM [2] [%] | EC50 [3] [nM] | Emax [4] [%] | other results |
| --- | --- | --- | --- | --- | --- |
| Cc1cc(CN[C@@H](Cc2ccccc2)C(=O)Nc2cc(-c3ccncc3)c[nH]c2=O)no1 | 95 | 78 | 2200 | 93 |  |
| CC(C)(N[C@@H](Cc1ccccc1)C(=O)Nc1cc(-c2ccncc2)c[nH]c1=O)c1ccccn1 | 100 | > 95 | 9450 | 57 |  |
| O=C(Nc1nnc(-c2cncs2)s1)[C@H](Cc1ccccc1)NCc1cscn1 | 57 | 29 | 390 | 74 | clearance [5]: 40 mL/min/kg; bioavailability [6]: 32% |
| O=C(Nc1cc(-c2ccncc2)c[nH]c1=O)[C@H](Cc1ccccc1)NCc1ccccn1 | 95 | 95 | 95 | 155 |  |
| O=C(O)Cn1cc(-c2ccncc2)cc(NC(=O)[C@H](Cc2ccccc2)NC2(c3ccccn3)CC2)c1=O | 12 | 10 | 260 | 83 | clearance [7]: 83.3 mL/min/kg |
| O=C(Nc1cc(-c2ccncc2)c[nH]c1=O)[C@H](Cc1ccccc1)NCc1c[nH]cn1 | 96 | 60 | 110 | 107 |  |
| O=C(Nc1cc(-c2ccncc2)c[nH]c1=O)[C@H](Cc1ccccc1)NCC1CCS(=O)(=O)CC1 | 58 | 21 | 20000 | 91 |  |
| Cc1nc(C2(N[C@@H](Cc3ccccc3)C(=O)Nc3cc(-c4ccncc4)c[nH]c3=O)CC2)cs1 | 74 | 64 | 200 | 106 |  |
| CCC(N[C@@H](Cc1ccccc1)C(=O)Nc1cc(-c2ccncc2)c[nH]c1=O)c1ccccn1 (mixture of isomers) | 95 | 85 | 730 | 81 |  |
| O=C(Nc1cc(-c2ccncc2)c[nH]c1=O)[C@H](Cc1ccccc1)NC[C@H]1CCCO1 | 98 | 83 | 390 | 78 |  |
| C[C@@H](N[C@@H](Cc1ccccc1)C(=O)Nc1cc(-c2ccncc2)c[nH]c1=O)c1ccccn1 | 95 | 95 | 6000 | 60 |  |
| O=C1CC[C@H](CN[C@@H](Cc2ccccc2)C(=O)Nc2cc(-c3ccncc3)c[nH]c2=O)N1 | 67 | 19 | 2230 | 78 |  |
| CNc1cc(-c2nnc(NC(=O)[C@H](Cc3ccccc3)NCc3cscn3)s2)ccn1 | 66 | 58 | 36 | 96 | AUC [8]: 3030 ng·h/mL; AUC [9]: 1730 ng·h/mL; half-life [10]: 1.2 h; clearance [11]: 3.83 mL/min/kg; Emax [12]: 37%; MRT [13]: 2.36 h; Vd [14]: 0.23 L/kg; bioavailability [6]: 36%; Activity [15]: inactive |
| C[C@H](N[C@@H](Cc1ccccc1)C(=O)Nc1cc(-c2ccncc2)c[nH]c1=O)c1ccccn1 | 99 | 100 | 220 | 107 |  |
| O=C(Nc1cc(-c2ccncc2)c[nH]c1=O)[C@H](Cc1ccccc1)NC1(c2ncccn2)CC1 | 67 | 21 | 99 | 114 |  |
| O=C(Nc1cc(-c2ccncc2)c[nH]c1=O)[C@H](Cc1ccccc1)NCCC1CCOCC1 | 80 | 66 | 1060 | 84 |  |
| COc1ncc(-c2ccncc2)cc1NC(=O)[C@H](Cc1ccccc1)NC1(c2ccccn2)CC1 | 54 | 15 | 350 | 123 | clearance [7]: 21.7 mL/min/kg; Activity [15]: inactive |
| Cn1ccc(CN[C@@H](Cc2ccccc2)C(=O)Nc2cc(-c3ccncc3)c[nH]c2=O)n1 | 100 | 90 | 210 | 92 |  |
| Cn1cncc1-c1nnc(NC(=O)[C@H](Cc2ccccc2)NCc2cscn2)s1 | 35 | 19 | 180 | 86 | clearance [5]: 28.3 mL/min/kg; bioavailability [6]: 19% |
| O=C(Nc1cc(-c2ccncc2)c[nH]c1=O)[C@H](Cc1ccccc1)NCc1ncccn1 | 99 | 90 | 440 | 95 |  |
| O=C(Nc1cc(-c2ccncc2)c[nH]c1=O)[C@H](Cc1ccccc1)NCCc1ccccn1 | 100 | 100 | 1320 | 76 |  |
| O=C(Nc1cc(-c2ccncc2)c[nH]c1=O)[C@H](Cc1ccccc1)NCc1cscn1 | 99 | 68 | 930 |  | Activity [15]: Active |
| CN(C)CCn1cc(-c2ccncc2)cc(NC(=O)[C@H](Cc2ccccc2)NC2(c3ccccn3)CC2)c1=O | 22 | 19 | 280 | 118 | clearance [7]: 51.7 mL/min/kg |
| O=C(Nc1nnc(-c2ccncc2)s1)[C@H](Cc1ccccc1)NCc1cscn1 | 10 | 14 | 86 | 115 | AUC [9]: 480 ng·h/mL; clearance [5]: 7.33 mL/min/kg; AUC [16]: 1240 ng·h/mL; MRT [13]: 1.93 h; half-life [17]: 1.2 h; bioavailability [6]: 10%; Vd [18]: 0.21 L/kg; Activity [15]: Active |
